Results published in ChEMBL document CHEMBL1139959, “Optimization of triaryl bis-sulfones as cannabinoid-2 receptor ligands” (Bioorg Med Chem Lett, 2007).

target: Cannabinoid receptor 2 (Homo sapiens) (UniProt P34972); test: Binding affinity to CB2 receptor
Sequence (P34972 whole entry, looked up): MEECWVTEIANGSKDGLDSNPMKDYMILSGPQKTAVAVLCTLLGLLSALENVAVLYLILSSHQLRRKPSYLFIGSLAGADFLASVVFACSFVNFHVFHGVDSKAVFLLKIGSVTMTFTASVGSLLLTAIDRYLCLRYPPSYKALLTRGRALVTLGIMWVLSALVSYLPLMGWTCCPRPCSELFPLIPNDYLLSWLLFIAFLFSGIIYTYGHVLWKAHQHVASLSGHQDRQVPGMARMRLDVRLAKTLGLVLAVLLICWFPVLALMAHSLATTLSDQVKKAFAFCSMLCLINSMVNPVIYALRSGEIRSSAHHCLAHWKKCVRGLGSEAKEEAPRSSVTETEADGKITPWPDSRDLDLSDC

Structure (SMILES)	Ki [nM]
C[C@H](NS(=O)(=O)C(F)(F)F)c1ccc(S(=O)(=O)c2ccc(Cl)cc2S(=O)(=O)c2c(F)cccc2N2CCOCC2)cc1	140
C[C@H](NC(=O)C(F)(F)F)c1ccc(S(=O)(=O)c2ccc(Cl)cc2S(=O)(=O)c2ccccc2F)cc1	3.7
C[C@H](NCCC(F)(F)F)c1ccc(S(=O)(=O)c2ccc(Cl)cc2S(=O)(=O)c2ccccc2F)cc1	17
CNc1cccc(F)c1S(=O)(=O)c1cc(Cl)ccc1S(=O)(=O)c1ccc([C@H](C)NS(=O)(=O)C(F)(F)F)cc1	22
C[C@H](NS(=O)(=O)C(F)(F)F)c1ccc(S(=O)(=O)c2ccc(N)cc2S(=O)(=O)c2ccccc2F)cc1	10
C[C@H](NS(C)(=O)=O)c1ccc(S(=O)(=O)c2ccc(Cl)cc2S(=O)(=O)c2ccccc2F)cc1	1.3
C[C@H](NS(=O)(=O)C(F)(F)F)c1ccc(S(=O)(=O)c2ccccc2S(=O)(=O)c2ccccc2F)cc1	25
C[C@H](NS(=O)(=O)C(F)(F)F)c1ccc(S(=O)(=O)c2ccc(N3CCNCC3)cc2S(=O)(=O)c2ccccc2F)cc1	1100
C[C@H](NS(=O)(=O)C(F)(F)F)c1ccc(S(=O)(=O)c2ccc(O)cc2S(=O)(=O)c2ccccc2F)cc1	1.3
C[C@H](NS(=O)(=O)C(F)(F)F)c1ccc(S(=O)(=O)c2ccc(OC(F)(F)F)cc2S(=O)(=O)c2ccccc2F)cc1	5
CNS(=O)(=O)c1cc(Cl)ccc1S(=O)(=O)c1ccc([C@H](C)NS(C)(=O)=O)cc1	1250
CCCS(=O)(=O)c1cc(Cl)ccc1S(=O)(=O)c1ccc([C@H](C)NS(C)(=O)=O)cc1	308
C[C@H](NS(=O)(=O)C(F)(F)F)c1ccc(S(=O)(=O)c2ccc(C(F)(F)F)cc2S(=O)(=O)c2ccccc2F)cc1	2.5
C[C@H](NS(C)(=O)=O)c1ccc(S(=O)(=O)c2ccc(Cl)cc2S(=O)(=O)N(C)C)cc1	1270
C[C@H](NS(C)(=O)=O)c1ccc(S(=O)(=O)c2ccc(Cl)cc2S(=O)(=O)c2cccc3cccnc23)cc1	204
C[C@H](NS(C)(=O)=O)c1ccc(S(=O)(=O)c2ccc(Cl)cc2S(=O)(=O)c2cccc[n+]2[O-])cc1	119
C[C@H](NCC(F)(F)F)c1ccc(S(=O)(=O)c2ccc(Cl)cc2S(=O)(=O)c2ccccc2F)cc1	7
C[C@H](NS(C)(=O)=O)c1ccc(S(=O)(=O)c2ccc(Cl)cc2S(=O)(=O)c2ccccn2)cc1	2.9
C[C@H](N)c1ccc(S(=O)(=O)c2ccc(Cl)cc2S(=O)(=O)c2ccccc2F)cc1	3950
C[C@H](NS(=O)(=O)C(F)(F)F)c1ccc(S(=O)(=O)c2ccc(Cl)cc2S(=O)(=O)c2c(N)cccc2F)cc1	4.1
